Molecular target: T1, human TLR8 (Homo sapiens, UniProt Q9NR97)
T1 sequence (Q9NR97 27-1041): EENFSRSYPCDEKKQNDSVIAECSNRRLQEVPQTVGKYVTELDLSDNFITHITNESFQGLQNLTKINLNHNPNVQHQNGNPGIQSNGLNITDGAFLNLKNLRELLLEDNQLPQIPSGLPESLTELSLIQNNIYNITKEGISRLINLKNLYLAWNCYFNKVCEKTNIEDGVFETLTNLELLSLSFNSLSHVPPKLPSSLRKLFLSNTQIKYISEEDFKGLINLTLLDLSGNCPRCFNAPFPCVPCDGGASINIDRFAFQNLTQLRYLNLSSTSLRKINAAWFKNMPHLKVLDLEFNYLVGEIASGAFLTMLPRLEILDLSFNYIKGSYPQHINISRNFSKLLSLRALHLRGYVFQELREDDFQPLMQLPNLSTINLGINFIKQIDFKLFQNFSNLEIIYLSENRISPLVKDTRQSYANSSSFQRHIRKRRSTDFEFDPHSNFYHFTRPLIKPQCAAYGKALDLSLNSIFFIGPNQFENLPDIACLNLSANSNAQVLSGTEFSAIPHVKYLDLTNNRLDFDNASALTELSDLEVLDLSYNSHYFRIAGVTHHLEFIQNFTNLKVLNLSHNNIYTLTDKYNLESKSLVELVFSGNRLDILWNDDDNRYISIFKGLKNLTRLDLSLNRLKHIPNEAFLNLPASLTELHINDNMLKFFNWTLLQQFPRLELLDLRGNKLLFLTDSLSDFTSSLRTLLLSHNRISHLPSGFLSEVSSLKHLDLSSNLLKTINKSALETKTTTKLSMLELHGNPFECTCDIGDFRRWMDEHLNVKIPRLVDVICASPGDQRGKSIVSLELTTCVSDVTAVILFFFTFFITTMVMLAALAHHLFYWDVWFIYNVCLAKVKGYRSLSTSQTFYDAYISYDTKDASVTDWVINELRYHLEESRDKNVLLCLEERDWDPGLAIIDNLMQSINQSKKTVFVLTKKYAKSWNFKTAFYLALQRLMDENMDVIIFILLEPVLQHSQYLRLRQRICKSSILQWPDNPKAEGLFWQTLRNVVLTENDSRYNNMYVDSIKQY
Assay: HEK293-Blue-hTLR-8 cells assay (SEAP reporter, R848 stimulation)
Assay type: cell-based
Conditions: HEK293-Blue-hTLR8 cells, R848, 20 hrs; lowest tested concentration 0.0032
Description: The following tests were carried out in order to determine the activity of the compounds of this invention in HEK293-Blue-hTLR-7/8/9 cells assay.
HEK293-Blue-hTLR-8 Cells Assay:
A stable HEK293-Blue-hTLR-8 cell line was purchased from InvivoGen (Cat. #: hkb-htlr8, San Diego, Calif., USA). These cells were originally designed for studying the stimulation of human TLR8 by monitoring the activation of NF-κB. A SEAP (secreted embryonic alkaline phosphatase) reporter gene was placed under the control of the IFN-β minimal promoter fused to five NF-κB and AP-1-binding sites. The SEAP was induced by activating NF-κB and AP-1 via stimulating HEK-Blue hTLR8 cells with TLR8 ligands. Therefore the reporter expression was declined by TLR8 antagonist under the stimulation of a ligand, such as R848, for incubation of 20 hrs. The cell culture supernatant SEAP reporter activity was determined using QUANTI-Blue™kit (Cat. #: rep-qb1, Invivogen, San Diego, Calif., USA) at a wavelength of 640 nm, a detection medium that turns purple or blue in the presence of alkaline phosphatase.
HEK293-Blue-hTLR8 cells were incubated at a density of […] cells/mL in a volume of 170 μL in a 96-well plate in Dulbecco's Modified Eagle's medium (DMEM) containing 4.5 g/L glucose, 50 U/mL penicillin, […], […], 2 mM L-glutamine, 10% (v/v) heat-inactivated fetal bovine serum with addition of 20 μL test compound in a serial dilution in the presence of final DMSO at 1% and 10 μL of 60 uM R848 in above DMEM, perform incubation under 37° C. in a CO2 incubator for 20 hrs. Then 20 μL of the supernatant from each well was incubated with 180 μL Quanti-blue substrate solution at 37° C. for 2 hrs and the absorbance was read at 620˜655 nm using a spectrophotometer. The signalling pathway that TLR8 activation leads to downstream NF-κB activation has been widely accepted, and therefore similar reporter assay was modified for evaluating TLR8 antagonist.

| SMILES | IC50 [nM] |
| --- | --- |
| C[C@H]1C[C@@H](NCc2cnc(N3CCN[C@@H](C)C3)nc2)CN(c2ccc(C#N)c3ncccc23)C1 [Example 29, 5-[(3S,5R)-3-methyl-5-[[2-[(3S)-3-methylpiperazin-1-yl]pyrimidin-5-yl]methylamino]-1-piperidyl]quinoline-8-carbonitrile] | < 3.2 |
| C[C@H]1C[C@@H](NCc2ccc3c(n2)CCNC3)CN(c2ccc(C#N)c3ncccc23)C1 [Example 30, 5-[(3S,5R)-3-methyl-5-(5,6,7,8-tetrahydro-1,6-naphthyridin-2-ylmethylamino)-1-piperidyl]quinoline-8-carbonitrile] | < 3.2 |
| C[C@H]1C[C@@H](NCc2cnc(N3CCNCC3)cn2)CN(c2ccc(C#N)c3ncccc23)C1 [Example 31, 5-[(3S,5R)-3-methyl-5-[(5-piperazin-1-ylpyrazin-2-yl)methylamino]-1-piperidyl]quinoline-8-carbonitrile] | < 3.2 |
| C[C@H]1C[C@@H](NCc2ccccc2)CN(c2ccc(C#N)c3ncccc23)C1 [Example R1, reference compound] | 20 |
| C[C@H]1C[C@@H](N2Cc3ccccc3C2)CN(c2ccc(C#N)c3ncccc23)C1 [Example R2, reference compound] | 110 |
